From patent US20110190503A1, “Thiazolopyridin-2-yloxy-phenyl and thiazolopyrazin-2-yloxy-phenyl amines as modulators of leukotriene A4 hydrolase” (Janssen Pharmaceutical NV, priority 2008, published 2011)

Tests used:
[1] = molecular target: T1, recombinant human LTA4 hydrolase (rhLTA4H) (Homo sapiens, UniProt P09960); assay: Recombinant human LTA4 hydrolase assay for LTA4 hydrolase inhibitor activity; type: biochemical; settings: rhLTA4H, LTA4 substrate, LTB4 by immunoassay; single determination or average; read-out: IC50
T1 construct: made in house; host or cells: Spodoptera frugiperda (Sf-9) cells, recombinant baculovirus (pFastBac1)
T1 sequence (P09960 1-611): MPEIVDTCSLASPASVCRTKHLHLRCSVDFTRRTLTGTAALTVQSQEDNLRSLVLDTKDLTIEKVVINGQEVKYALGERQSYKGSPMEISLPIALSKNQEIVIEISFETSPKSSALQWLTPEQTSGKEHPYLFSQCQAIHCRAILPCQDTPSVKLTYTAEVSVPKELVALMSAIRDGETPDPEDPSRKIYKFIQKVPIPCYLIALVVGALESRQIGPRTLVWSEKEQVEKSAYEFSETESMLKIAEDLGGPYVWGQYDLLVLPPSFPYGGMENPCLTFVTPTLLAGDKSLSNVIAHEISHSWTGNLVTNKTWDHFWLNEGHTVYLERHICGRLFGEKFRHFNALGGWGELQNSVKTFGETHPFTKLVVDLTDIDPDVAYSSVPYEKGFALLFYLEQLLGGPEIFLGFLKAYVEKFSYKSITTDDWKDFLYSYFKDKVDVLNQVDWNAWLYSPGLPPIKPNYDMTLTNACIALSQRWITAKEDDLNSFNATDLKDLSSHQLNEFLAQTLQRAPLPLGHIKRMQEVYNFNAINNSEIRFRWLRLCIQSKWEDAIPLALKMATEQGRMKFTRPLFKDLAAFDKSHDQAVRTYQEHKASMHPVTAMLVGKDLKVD
Procedure, shortened: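 Recombinant human LTA4H from baculovirus-infected Sf-9 cells (10 ng) pre-incubated 10 min at rt with compound (10% DMSO in dilutions), then reacted with free-acid LTA4 for 30 min at rt. LTB4 measured by ELISA; IC50 by nonlinear regression. Values are single determinations or averages.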

[2] = test system: LTB4 production by calcium ionophore-stimulated murine blood; assay: LTB4 production by calcium ionophore-stimulated murine blood for LTA4H inhibitor activity; type: cell-based, CD-1 mice; settings: Mus musculus; murine blood diluted 1 in 15, calcium ionophore A23187, LTB4 by immunoassay; read-out: IC50
Protocol: Assay 2: LTB4 Production by Calcium Ionophore-Stimulated Murine Blood for LTA4H Inhibitor Activity
CD-1 mice were sacrificed, and blood was collected in heparin-containing syringes by cardiac puncture. […] After the microtiter plate contents were incubated for 15 min at 37° C. in a humidified incubator, calcium ionophore A23187 (Sigma Chemical Co., St. Louis, Mo.) was added to each sample well (final concentration=7 μg/mL). The incubation was continued under the same conditions for an additional 30 min to allow LTB4 formation. The reaction was terminated by centrifugation (833×g, 10 min at 4° C.), and supernatants were analyzed for LTB4 by a commercially available enzyme-linked immunoassay (Cayman Chemical Co.) according to the manufacturer's instructions. Positive controls, under essentially identical conditions but without addition of an inhibitor compound, and negative unstimulated controls, containing all assay components except calcium ionophore, were routinely run in each experiment. […] The values presented here are the result of a single determination or an average of two or more determinations, as indicated in parentheses following each value. For compounds tested three or more times, the average value is followed by the standard deviation

SMILES	IC50 [1] [nM]	IC50 [2] [nM]
NC(=O)N1CC2CN(Cc3ccc(Oc4nc5ncccc5s4)cc3)CC2C1 (stereo not shown) [Example 277, 5-[4-([1,3]Thiazolo[4,5-b]pyridin-2-yloxy)benzyl]hexahydropyrrolo[3,4-c]pyrrole-2(1H)-carboxamide]	7	900
CC(=O)N1[C@@H]2CC[C@H]1CN(CCOc1ccc(Oc3nc4ncccc4s3)cc1)C2 [Example 162, meso-2-{[4-({2-[8-Acetyl-3,8-diazabicyclo[3.2.1]oct-3-yl]ethyl}oxy)phenyl]oxy}[1,3]thiazolo[4,5-b]pyridine]	3	12
c1cnc2nc(Oc3ccc(OCCN4CCCC4)cc3)sc2c1 [Example 9, 2-[4-(2-Pyrrolidin-1-ylethoxy)phenoxy][1,3]thiazolo[4,5-b]pyridine]	6	17
CC(=O)N1CCC2(CCN(Cc3ccc(Oc4nc5ncccc5s4)cc3)CC2)CC1 [Example 295, 3-Acetyl-9-[4-([1,3]thiazolo[4,5-b]pyridin-2-yloxy)benzyl]-3,9-diazaspiro[5.5]undecane]	6	15
Cc1ccc(SC2CCN(CCOc3ccc(Oc4nc5ncccc5s4)cc3)CC2)cc1 [Example 255, 2-[4-(2-{4-[(4-Methylphenyl)sulfanyl]piperidin-1-yl}ethoxy)phenoxy][1,3]thiazolo[4,5-b]pyridine]	71	1300
c1cnc2nc(Oc3ccc(CNCCN4CCCCC4)cc3)sc2c1 [Example 91, 2-Piperidin-1-yl-N-[4-([1,3]thiazolo[4,5-b]pyridin-2-yloxy)benzyl]ethanamine]	39	680
c1cnc(OC2CCN(CCOc3ccc(Oc4nc5ncccc5s4)cc3)CC2)nc1 [Example 1, 2-(4-{2-[4-(Pyrimidin-2-yloxy)piperidin-1-yl]ethoxy}phenoxy)[1,3]thiazolo[4,5-b]pyridine]	1	150
NC(=O)N1CC2CN(CCc3ccc(Oc4nc5ncccc5s4)cc3)CC2C1 (stereo not shown) [Example 74, 5-{2-[4-([1,3]Thiazolo[4,5-b]pyridin-2-yloxy)Phenyl]ethyl}hexahydropyrrolo[3,4-c]pyrrole-2(1H)-carboxamide]	6.5	230
FC1(F)CCN(Cc2ccc(Oc3nc4ncccc4s3)cc2)C1 [Example 93, 2-{4-[(3,3-Difluoropyrrolidin-1-yl)methyl]phenoxy}[1,3]thiazolo[4,5-b]pyridine]	55	520
CCOC(=O)C1CCN(Cc2ccc(Oc3nc4ncccc4s3)cc2)CC1 [Example 130, Ethyl 1-[4-([1,3]thiazolo[4,5-b]pyridin-2-yloxy)benzyl]piperidine-4-carboxylate]	2.5	110
OC1(c2ccccc2)CCN(CCOc2ccc(Oc3nc4cccnc4s3)cc2)CC1 [Example 40, 4-Phenyl-1-{2-[4-([1,3]thiazolo[5,4-b]pyridin-2-yloxy)phenoxy]ethyl}piperidin-4-ol]	99	950
FC1CCN(Cc2ccc(Oc3nc4ncccc4s3)cc2)CC1 [Example 96, 2-{4-[(4-Fluoropiperidin-1-yl)methyl]phenoxy}[1,3]thiazolo[4,5-b]pyridine]	24	37
OC1(c2ccc(Cl)cc2)CCN(Cc2ccc(Oc3nc4ncccc4s3)cc2)CC1 [Example 104, 4-(4-Chlorophenyl)-1-[4-([1,3]thiazolo[4,5-b]pyridin-2-yloxy)benzyl]piperidin-4-ol]	1.9	28
CN(CCOc1ccc(Oc2nc3ncccc3s2)cc1)Cc1ccccc1 [Example 36, N-Benzyl-N-methyl-2-[4-([1,3]thiazolo[4,5-b]pyridin-2-yloxy)phenoxy]ethanamine]	3	51
CC(=O)N1C[C@@H]2C[C@H]1CN2Cc1ccc(Oc2nc3cccnc3s2)cc1 [Example 124, 2-(4-{[(1S,4S)-5-Acetyl-2,5-diazabicyclo[2.2.1]hept-2-yl]methyl}phenoxy)[1,3]thiazolo[5,4-b]pyridine]	220	700
c1ccc(OC2CCN(CCOc3ccc(Oc4nc5ncccc5s4)cc3)CC2)nc1 [Example 12, 2-(4-{2-[4-(Pyridin-2-yloxy)piperidin-1-yl]ethoxy}phenoxy)[1,3]thiazolo[4,5-b]pyridine]	11	160
c1cnc(OC2CCN(Cc3ccc(Oc4nc5ncccc5s4)cc3)CC2)nc1 [Example 99, 2-(4-{[4-(Pyrimidin-2-yloxy)piperidin-1-yl]methyl}phenoxy)[1,3]thiazolo[4,5-b]pyridine]	2	8
CC(=O)N[C@H]1C[C@H]2CC[C@@H](C1)N2CCOc1ccc(Oc2nc3nccnc3s2)cc1 [Example 148, meso-N-[(3-endo)-8-{2-[4-([1,3]Thiazolo[4,5-b]pyrazin-2-yloxy)phenoxy]ethyl}-8-azabicyclo[3.2.1]oct-3-yl]acetamide]	43	36
c1cnc(OC2CCN(Cc3ccc(Oc4nc5nccnc5s4)cc3)CC2)nc1 [Example 184, 2-[(4-{[4-(Pyrimidin-2-yloxy)piperidin-1-yl]methyl}phenyl)oxy][1,3]thiazolo[4,5-b]pyrazine]	18	110
NC(=O)N1C[C@H]2CC[C@@H](C1)N2CCc1ccc(Oc2nc3cccnc3s2)cc1 [Example 71, meso-8-{2-[4-([1,3]Thiazolo[5,4-b]pyridin-2-yloxy)phenyl]ethyl}-3,8-diazabicyclo[3.2.1]octane-3-carboxamide]	81	280
COCCCN(CCOc1ccc(Oc2nc3ncccc3s2)cc1)C1CC1 [Example 272, N-(3-Methoxypropyl)-N-{2-[4-([1,3]thiazolo[4,5-b]pyridin-2-yloxy)phenoxy]ethyl}cyclopropanamine]	37	97
c1cnc2nc(Oc3ccc(OCCN4CCC(Oc5ccncc5)CC4)cc3)sc2c1 [Example 13, 2-(4-{2-[4-(Pyridin-4-yloxy)piperidin-1-yl]ethoxy}phenoxy)[1,3]thiazolo[4,5-b]pyridine]	13	120
COCCN(C)CCOc1ccc(Oc2nc3nccc(C)c3s2)cc1 [Example 160, N-Methyl-2-(methyloxy)-N-[2-({4-[(7-methyl[1,3]thiazolo[4,5-b]pyridin-2-yl)oxy]phenyl}oxy)ethyl]ethanamine]	99	180
c1ccc2c(c1)CCN(CCOc1ccc(Oc3nc4ncccc4s3)cc1)C2 [Example 6, 2-{2-[4-([1,3]Thiazolo[4,5-b]pyridin-2-yloxy)phenoxy]ethyl}-1,2,3,4-tetrahydroisoquinoline]	9	64
CC(=O)N[C@H]1C[C@H]2CC[C@@H](C1)N2Cc1ccc(Oc2nc3cnccc3s2)cc1 [Example 134, meso-N-{(3-endo)-8-[4-([1,3]Thiazolo[4,5-c]pyridin-2-yloxy)benzyl]-8-azabicyclo[3.2.1]oct-3-yl}acetamide]	38	180
OC1(c2cccc(C(F)(F)F)c2)CCN(CCOc2ccc(Oc3nc4nccnc4s3)cc2)CC1 [Example 24, 1-{2-[4-([1,3]Thiazolo[4,5-b]pyrazin-2-yloxy)phenoxy]ethyl}-4-[3-(trifluoromethyl)phenyl]piperidin-4-ol]	52	750
OC1(c2ccccc2)CCN(CCOc2ccc(Oc3nc4nccnc4s3)cc2)CC1 [Example 22, 4-Phenyl-1-{2-[4-([1,3]thiazolo[4,5-b]pyrazin-2-yloxy)phenoxy]ethyl}piperidin-4-ol]	62	200
NC(=O)N1CC2CN(CCOc3ccc(Oc4nc5ncccc5s4)cc3)CC2C1 (stereo not shown) [Example 19, 5-{2-[4-([1,3]Thiazolo[4,5-b]pyridin-2-yloxy)phenoxy]ethyl}hexahydropyrrolo[3,4-c]pyrrole-2(1H)-carboxamide]	17	340
C[C@H]1COCCN1Cc1ccc(Oc2nc3ncccc3s2)cc1 [Example 88, 2-(4-{[(3S)-3-Methylmorpholin-4-yl]methyl}phenoxy)[1,3]thiazolo[4,5-b]pyridine]	8	50
